{"source": "patent US20170114060A1", "about": "(priority 2014, published 2017)", "key": {"CRAC/Orai1 channels": {"target": "CRAC/Orai1 channels (Homo sapiens, UniProt Q96D31)", "sequence (Q96D31 whole entry)": "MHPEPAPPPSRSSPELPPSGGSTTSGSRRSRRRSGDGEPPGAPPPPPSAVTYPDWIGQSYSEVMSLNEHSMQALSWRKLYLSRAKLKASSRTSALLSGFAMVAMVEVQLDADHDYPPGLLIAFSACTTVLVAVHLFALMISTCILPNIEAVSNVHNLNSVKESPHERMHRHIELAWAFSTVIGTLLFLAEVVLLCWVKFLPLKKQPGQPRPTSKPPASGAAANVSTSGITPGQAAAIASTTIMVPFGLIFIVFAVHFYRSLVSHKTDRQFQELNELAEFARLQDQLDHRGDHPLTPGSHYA", "type": "cell-based"}, "Ebola VP40 (eVP40) VLPs": {"tested_on": "Ebola VP40 (eVP40) VLPs", "type": "cell-based"}, "[1]": {"tested_on": "Marburg VP40 (mVP40) VLPs", "type": "cell-based"}, "[2]": {"tested_on": "Junin virus (Candid-1 strain)", "type": "cell-based"}, "[3]": {"tested_on": "vesicular stomatitis virus (VSV)", "type": "cell-based"}, "VP40-APT/PY VLP budding": {"tested_on": "VP40-APT/PY VLP budding", "type": "cell-based"}, "Influenza Virus A": {"tested_on": "Influenza Virus A", "type": "cell-based"}, "HEK293T cells [4]": {"tested_on": "HEK293T cells"}, "HEK293T cells [5]": {"tested_on": "HEK293T cells", "remark": "listed apart in the source"}, "HIV-1": {"tested_on": "HIV-1", "type": "cell-based"}, "[6]": {"tested_on": "Ebola VP40 induced intracellular calcium increase", "type": "cell-based"}, "LASV": {"tested_on": "LASV", "type": "cell-based, Lassa fever virus"}, "JUNV": {"tested_on": "JUNV", "type": "cell-based, Junin virus"}, "MARV": {"tested_on": "MARV", "type": "cell-based, Marburg virus"}, "EBOV": {"tested_on": "EBOV", "type": "cell-based, Ebola virus"}, "[7]": {"tested_on": "eVP40 GFP expressed in HEK cells", "type": "cell-based"}, "retrovirus": {"tested_on": "retrovirus", "settings": "cited from earlier work"}}, "note": "“Also recorded” adds a separate entry of the source.", "data": [{"molecule": "NCCOB(c1ccccc1)c1ccccc1", "note": "[2-APB, 2-aminoethoxydiphenylborate]", "values": [{"measurement": "concentration that fully inhibited CRAC channels", "setting": "CRAC/Orai1 channels", "result": 50, "unit": "µM"}, {"measurement": "inhibition of store-operated Ca2+ entry via CRAC/Orai channels", "setting": "CRAC/Orai1 channels", "result": "block store operated Ca^2+ influx; also recorded: blocked; also recorded: blocks Ca^2+ entry following Tg stimulation without affecting its release from the ER; also recorded: inhibition of Ca^2+ entry via CRAC channels"}, {"measurement": "effect on cellular eVP40 expression/accumulation", "setting": "Ebola VP40 (eVP40) VLPs", "result": "neither 2-APB nor Synta66 inhibited cellular accumulation"}, {"measurement": "inhibition of eVP40 VLP formation", "setting": "Ebola VP40 (eVP40) VLPs", "result": "inhibited eVP40 and mVP40 VLP budding"}, {"measurement": "effect on cellular mVP40 accumulation", "setting": "[1]", "result": "neither 2-APB nor Synta66 inhibited cellular accumulation"}, {"measurement": "inhibition of mVP40 VLP budding", "setting": "[1]", "result": "inhibited eVP40 and mVP40 VLP budding"}, {"measurement": "decrease in the number of foci formed by virions released from cells", "setting": "[2]", "result": 10, "unit": "fold"}, {"measurement": "reduction of live Junin virus (Candid-1) foci / budding", "setting": "[2]", "result": "a similar dose-dependent decrease in JUNV budding"}, {"measurement": "effect on cellular expression of VSV M protein", "setting": "[3]", "result": "only a slight effect on cellular M protein expression; also recorded: little to no effect on cellular expression of VSV M protein"}, {"measurement": "inhibition of live VSV budding / titers", "setting": "[3]", "result": "inhibited live VSV viral particle budding; also recorded: dose-dependent inhibition of VSV budding"}, {"measurement": "sensitivity of Alix Bro1-V rescue of VLP production", "setting": "VP40-APT/PY VLP budding", "result": "2-APB sensitive"}, {"measurement": "viability of cells under conditions mimicking infection experiments", "setting": "VeroE6 cells", "result": "without effect on the viability of cells"}]}, {"molecule": "c1ccc(C(c2ccccc2)c2noc(C3CCNCC3)n2)cc1", "note": "[FC-2121]", "values": [{"measurement": "inhibition of store-operated Ca2+ entry via CRAC/Orai channels", "setting": "CRAC/Orai1 channels", "result": "partial dose-dependent inhibition of Tg-induced calcium entry; also recorded: can block calcium influx into cells via Orai; also recorded: reduce Orai-mediated calcium entry"}, {"measurement": "inhibition of eVP40 VLP formation", "setting": "Ebola VP40 (eVP40) VLPs", "result": "a corresponding inhibition of VLP formation; also recorded: successful inhibition of Ebola VP40 VLP production"}, {"measurement": "reduction of live Influenza Virus A budding", "setting": "Influenza Virus A", "result": "reduce live Influenza Virus A budding"}, {"measurement": "cell viability / cytotoxicity (MTT)", "setting": "HEK293T cells [4]", "result": "without cell toxicity"}, {"measurement": "cytotoxicity", "setting": "HEK293T cells [5]", "result": "not cytotoxic"}, {"measurement": "cytotoxicity", "setting": "MDCK cells", "result": "not cytotoxic"}]}, {"molecule": "Cc1c(CC(C(=O)O)c2ccccc2)nn(-c2ccccc2)c1-c1ccccc1", "note": "(stereo not drawn) [FC-2122, 3-(4-methyl-1,5-diphenyl-1H-pyrazol-3-yl)-2-phenylpropanoic acid]", "values": [{"measurement": "inhibition of store-operated Ca2+ entry via CRAC/Orai channels", "setting": "CRAC/Orai1 channels", "result": "partial dose-dependent inhibition of Tg-induced calcium entry; also recorded: inhibits Orai-mediated calcium entry; also recorded: can block calcium influx into cells via Orai"}, {"measurement": "cellular eVP40 expression", "setting": "Ebola VP40 (eVP40) VLPs", "result": "not different from mock treated cells"}, {"measurement": "concentrations at which VP40 expression inhibited", "setting": "Ebola VP40 (eVP40) VLPs", "result": "above 10 μM"}, {"measurement": "inhibition of eVP40 VLP formation", "setting": "Ebola VP40 (eVP40) VLPs", "result": "a corresponding inhibition of VLP formation; also recorded: decreased to a comparable extent as by 2-APB; also recorded: inhibits; also recorded: successful inhibition of Ebola VP40 VLP production"}, {"measurement": "reduction of live Influenza Virus A budding", "setting": "Influenza Virus A", "result": "reduce live Influenza Virus A budding"}, {"measurement": "inhibition of budding of live HIV-1", "setting": "HIV-1", "result": "did not inhibit budding of live HIV-1"}, {"measurement": "cell viability / cytotoxicity (MTT)", "setting": "HEK293T cells [4]", "result": "without cell toxicity"}, {"measurement": "cytotoxicity", "setting": "HEK293T cells [5]", "result": "not cytotoxic"}, {"measurement": "cytotoxicity", "setting": "MDCK cells", "result": "not cytotoxic"}]}, {"molecule": "Cc1cc(CC(C(=O)O)c2ccc(Cl)cc2)nn1-c1ccc(Cl)cc1", "note": "(stereo not drawn) [FC-2399, 2-(4-Chloro-phenyl)-3-[1-(4-chloro-phenyl)-5-methyl-1H-pyrazol-3-yl]-propionic acid]", "values": [{"measurement": "inhibition of store-operated Ca2+ entry via CRAC/Orai channels", "setting": "CRAC/Orai1 channels", "result": "reduce Orai-mediated calcium entry"}, {"measurement": "inhibition of live VSV budding / titers", "setting": "[3]", "result": "significantly reduced budding of live Vesicular Stomatitis Virus in vitro in a dose-dependent manner"}, {"measurement": "reduction of live Influenza Virus A budding", "setting": "Influenza Virus A", "result": "reduce live Influenza Virus A budding"}, {"measurement": "inhibition of budding of live HIV-1", "setting": "HIV-1", "result": "reduces budding of live HIV-1"}]}, {"molecule": "CC(=O)N[C@@H](CS)C(=O)O", "note": "[NAC, N-acetyl cysteine]", "values": [{"measurement": "block of Ebola VP40 induced intracellular calcium increase", "setting": "[6]", "result": "block the Ebola VP40 induced intracellular calcium increase"}]}, {"molecule": "Cc1cc(Cc2cc(C)cc(C(C)(C)C)c2O)c(O)c(Cc2cc(C)cc(C(C)(C)C)c2O)c1", "note": "[NSC 62914]", "values": [{"measurement": "block of Ebola VP40 induced intracellular calcium increase", "setting": "[6]", "result": "block the Ebola VP40 induced intracellular calcium increase"}]}, {"molecule": "CC1=C(c2cnc(NC(=O)c3c(F)cccc3F)cn2)CN(c2ncc(C)s2)CC1", "note": "[R02959, 2,6-difluoro-N-{5-[4-methyl-1-(5-methyl-thiazol-2-yl)-1,2,5,6-tetrahydro-pyridin-3-yl]-pyrazin-2-yl}-benzamide]", "values": [{"measurement": "inhibition of store-operated Ca2+ entry via CRAC/Orai channels", "setting": "CRAC/Orai1 channels", "result": "blocks Ca^2+ entry following Tg stimulation without affecting its release from the ER"}, {"measurement": "potency as inhibitor of Orai1 relative to 2-APB or Synta66", "setting": "CRAC/Orai1 channels", "result": "~10", "unit": "fold"}, {"measurement": "inhibition of Ca2+ entry via CRAC channels", "setting": "CRAC/Orai1 channels; 5 μM", "result": "inhibits Ca^2+ entry via CRAC channels"}, {"measurement": "block of Ca2+ entry", "setting": "CRAC/Orai1 channels; concentrations <5 μM", "result": "50-100 fold"}, {"measurement": "effect on cellular eVP40 expression/accumulation", "setting": "Ebola VP40 (eVP40) VLPs", "result": "without any effect on cellular VP40 expression"}, {"measurement": "inhibition of eVP40 VLP formation", "setting": "Ebola VP40 (eVP40) VLPs", "result": "dose dependent inhibition of eVLP formation"}, {"measurement": "block of eVP40 production", "setting": "Ebola VP40 (eVP40) VLPs; concentrations <5 μM", "result": "50-100 fold"}]}, {"molecule": "COc1ccc(OC)c(-c2ccc(NC(=O)c3ccncc3F)cc2)c1", "note": "[Synta66, N-(2′,5′-dimethoxy[1,1′-biphenyl]-4-yl)-3-fluoro-4-pyridinecarboxamide]", "values": [{"measurement": "inhibition of store-operated Ca2+ entry via CRAC/Orai channels", "setting": "CRAC/Orai1 channels", "result": "blocks Ca^2+ entry following Tg stimulation without affecting its release from the ER; also recorded: inhibition of Ca^2+ entry via CRAC channels"}, {"measurement": "effect on cellular eVP40 expression/accumulation", "setting": "Ebola VP40 (eVP40) VLPs", "result": "neither 2-APB nor Synta66 inhibited cellular accumulation"}, {"measurement": "effect on cellular mVP40 accumulation", "setting": "[1]", "result": "neither 2-APB nor Synta66 inhibited cellular accumulation"}, {"measurement": "cellular expression of JUNV glycoprotein (GP)", "setting": "[2]", "result": "No effect"}, {"measurement": "reduction of live Junin virus (Candid-1) foci / budding", "setting": "[2]", "result": "dose-dependent reduction in the number of Junin foci; also recorded: reduces the number of JUNV foci in a dose-dependent manner"}, {"measurement": "effect on cellular expression of VSV M protein", "setting": "[3]", "result": "without affecting expression of VSV M"}, {"measurement": "inhibition of live VSV budding / titers", "setting": "[3]", "result": "dose-dependent inhibition of VSV budding; also recorded: inhibited VSV titers"}, {"measurement": "reduction in budding of live VSV", "setting": "[3]", "result": "dose-dependent reduction in budding of live Vesicular Stomatitis Virus"}, {"measurement": "inhibition of live LASV budding and spread", "setting": "LASV", "result": "steep dose-dependent inhibition; also recorded: dose-dependent reduction"}, {"measurement": "inhibition of live JUNV budding and spread", "setting": "JUNV", "result": "steep dose-dependent inhibition; also recorded: dose-dependent reduction"}, {"measurement": "inhibition of live MARV budding and spread", "setting": "MARV", "result": "steep dose-dependent inhibition; also recorded: dose-dependent reduction"}, {"measurement": "inhibition of live EBOV budding and spread", "setting": "EBOV", "result": "steep dose-dependent inhibition; also recorded: dose-dependent reduction"}, {"measurement": "VP40-induced membrane protrusions / VLP structures at the plasma membrane", "setting": "[7]", "result": "not prevelant; also recorded: inhibits the formation of VP40-induced membrane protrusions; also recorded: inhibition of EBOV VP40 protrusions from the plasma membrane; also recorded: reduces Ebola VP40-mediated virus-like particle formation at the plasma membrane"}, {"measurement": "VP40 expression and membrane localization", "setting": "[7]", "result": "no difference in membrane localization of eVP40; also recorded: no apparent effect on VP40 expression or membrane localization; also recorded: does not result in altered expression of Ebola VP40 (green) at the plasma membrane"}]}, {"molecule": "Nc1ccc(C(=O)Nc2cccc(-c3nc(N4CCOCC4)c4oc5ncccc5c4n3)c2)cn1", "note": "[YM201636]", "values": [{"measurement": "inhibition of eVP40 VLP formation", "setting": "Ebola VP40 (eVP40) VLPs", "result": "dose-dependent reduction of Ebola VP40 VLP production"}, {"measurement": "retrovirus budding", "setting": "retrovirus", "result": "inhibited retrovirus budding"}]}, {"molecule": "C[C@H](CCC(=O)O)C[C@H](C)C[C@H](C)C(=O)/C=C(\\O)[C@H](C)C[C@H](C)C/C=C/[C@@H](C)[C@@H](O)[C@@H](C)[C@@H](O)C[C@@H]1CC[C@@](C)([C@H]2CC[C@@](C)([C@@H](C)O)O2)O1", "note": "[ionomycin]", "values": [{"measurement": "rescue of VP40-APT/PY VLP budding mediated by the Bro1-V fragment of Alix", "setting": "VP40-APT/PY VLP budding", "result": "did not enhance rescue"}]}]}
